Results taken from patent US20200397749A1, “COMPOSITIONS AND METHODS FOR TREATING ACUTE CANNABINOID OVERDOSE WITH A CANNABINOID RECEPTOR ANTAGONIST” (Opiant Pharmaceuticals, Inc., priority 2019, published 2020).

Key:
[1] = Solubility of drinabant in excipients; format: physicochemical
Experimental: Drinabant may be added to a fixed volume of aqueous solution with and without various amounts of water soluble carriers such as Solutol HS 15 in screw capped bottles. […] Filtered solutions are then analyzed for drinabant concentration using an appropriate method such as UV/visible spectrophotometry at an appropriate wavelength (nm) or by HPLC.
Two different categories of excipients, described in the literature as injectable intravenously, were tested for the solubility of drinabant:
(§1) The chemical composition of the selected excipients, as well the solubility of drinabant, are renorted in the table below.

[2] = Stability at RT of drinabant in the saturated solution; format: physicochemical
Text: as §1

[3] = cited from earlier work

drinabant solubility ([1]; in Cremophor EL (POE hydrogenated castor oil)): 49.4 mg/g | drinabant solubility ([1]; in Glycerol): <<0.0001 mg/g | drinabant solubility ([1]; in Glycofurol): 139.4 mg/g | drinabant solubility ([1]; in PEG 400): 50 mg/g | drinabant solubility ([1]; in PS80 VG (POE monooleate)): 48.8 mg/g | drinabant solubility ([1]; in Propylene glycol): 7 mg/g | drinabant solubility ([1]; in Solutol HS15 (PEG hydroxystearate), at 40° C.): 64.6 mg/g | Stability at RT of drinabant in the saturated solution ([2]; in Cremophor EL): Stable | Stability at RT of drinabant in the saturated solution ([2]; in PS80 VG): Stable | Stability at RT of drinabant in the saturated solution ([2]; in Solutol HS15): Stable
Structure (SMILES): CS(=O)(=O)N(c1cc(F)cc(F)c1)C1CN(C(c2ccc(Cl)cc2)c2ccc(Cl)cc2)C1 [drinabant]
Tmax ([3]; oral drinabant): > 3 h | safety and tolerability ([3]; oral, up to 240 mg up to 3 weeks (Phase I), 60 mg up to 24 weeks (Phase II)): safe and well tolerated
